The source of these data is US10167283B2, “β-lactamase inhibitors and uses thereof” (priority 2015, dated 2019).

Broadly, the MIC is the smallest concentration in the dilution series that meets the test's criterion for growth inhibition. Broadly, the IC50 is the concentration that gives 50% inhibition. As usually defined, the half-life is how long it takes for the measured level to halve. A high value points to slow decline. In general, AUC(0-t) refers to exposure summed from dosing to a finite time, without extrapolation to infinity. Lower therefore signals less exposure.

Data set [1] concerns Escherichia coli BAA-196 (TEM-10). Put plainly: In vitro antibacterial activity, agar dilution MIC. Format: cell-based. The following applies: TEM-10, read-out: MIC. An excerpt: (§1) Experimental strains: all experimental standard bacterial strains for enzyme production were purchased from ATCC, and the clinically separated CRE strain was purchased from Southwest Hospital of the Third Military Medical University.
(§2) Experimental Method: Agar dilution method, referring to M100-S23: Performance Standards for Antimicrobial Susceptibility Testing: Twenty-Third Informational Supplement (Clinical And Laboratory Standards Institute, 2013). Minimal inhibitory concentration (MIC, μg/mL) was calculated.

In data set [2] the test system is Klebsiella pneumoniae BAA-1900 (KPC). The data set can be described thus: In vitro antibacterial activity, agar dilution MIC. Format: cell-based. The following applies: KPC, read-out: MIC.
Text: as §1, §2
(In agar dilution the substance is mixed into plates at graded concentrations.)

Data set [3] deals with Escherichia coli BAA-2523 (OXA-48). Put plainly: In vitro antibacterial activity, agar dilution MIC. To be noted: OXA-48, read-out: MIC. Format: cell-based.
Text: as §1, §2

In data set [4] the test system is Escherichia coli BAA-2452 (NDM-1). Put plainly: In vitro antibacterial activity, agar dilution MIC. Format: cell-based. To be noted: NDM-1, read-out: MIC.
Text: as §1, §2

Data set [5] concerns Klebsiella oxytoca ATCC-51983 (SHV-5). The data set can be described thus: In vitro antibacterial activity, agar dilution MIC. The following applies: ATCC51983; Table 2; ATCC-51983 Klebsiella oxytoca, SHV-5; read-out: MIC. It counts as cell-based.
Text: as §1, §2

Data set [6] concerns Klebsiella pneumoniae BAA-2524 (OXA-48). Put plainly: In vitro antibacterial activity, agar dilution MIC. It counts as cell-based. The following applies: BAA2524; Table 2; BAA-2524 Klebsiella pneumoniae, OXA-48; read-out: MIC.
Text: as §1, §2

The subject of data set [7] is Enterobacter cloacae BAA-2341 (KPC). Put plainly: In vitro antibacterial activity, agar dilution MIC. Format: cell-based. To be noted: BAA2341; Table 2; BAA-2341 Enterobacter cloacae, KPC; read-out: MIC.
Text: as §1, §2

For data set [8], the system named is Escherichia coli BAA-2340 (KPC). Put plainly: In vitro antibacterial activity, agar dilution MIC. It counts as cell-based. To be noted: BAA2340, Table 2, BAA-2340 Escherichia coli.
Text: as §1, §2

The test system of data set [9] is Enterobacter hormaechei BAA-2082 (KPC). Put plainly: In vitro antibacterial activity, agar dilution MIC. Format: cell-based. The following applies: BAA2082; Table 2; BAA-2082 Enterobacter hormaechei, KPC; read-out: MIC.
Text: as §1, §2

Data set [10] has as its system Klebsiella pneumoniae BAA-2146 (NDM-1). Put plainly: In vitro antibacterial activity, agar dilution MIC. It counts as cell-based. The following applies: NDM-1, read-out: MIC.
Text: as §1, §2

Data set [11] deals with Enterobacter cloacae 7513ecl-314 (AmpC). The data set can be described thus: In vitro antibacterial activity on clinically separated CRE strain, agar dilution MIC. Format: cell-based.
Text: as §1, §2

For data set [12], the system named is Enterobacter cloacae 7494ecl-295 (NDM, ESBLs, AmpC). The description is as above. It counts as cell-based. The following applies: Table 3, 7494ecl-295 Enterobacter cloacae.
Text: as §1, §2

Data set [13] relates to Escherichia coil 7440eco-641 (ESBLs). The data set is described as above. It counts as cell-based. To be noted: Table 3, 7440eco-641 Escherichia coil.
Text: as §1, §2

Data set [14] relates to Enterobacter cloacae 7495ecl-296 (IMP, ESBLs, AmpC). Described as above. It counts as cell-based. To be noted: Table 3, 7495ecl-296 Enterobacter cloacae.
Text: as §1, §2

Data set [15] addresses T1, AmpC (UniProt P05364).
T1 construct: The concentration of purchased β-lactamases mother liquor was 1 mg/mL, and the mother liquor was dissolved in 50% glycerol
The data set can be described thus: β-lactamase inhibition, Nitrocefin hydrolysis. It counts as biochemical. To be noted: Nitrocefin 0.1 mM. The protocol: Nitrocefin, a kind of cephalosporin antibiotics, is sensitive to most of β-lactamases, and changes in color after being hydrolyzed. The hydrolysis rate of Nitrocefin was measured by real-time recording corresponding absorbance of reaction system. β-Lactamase inhibitors could inhibit hydrolysis of the enzymes to Nitrocefin, and reduce hydrolysis rate. By measuring reaction rates in the same reaction system under different inhibitor concentrations, the IC50 (half maximal inhibitory concentration) values of inhibitors were calculated.
Nitrocefin was dissolved in DMSO to form a solution with concentration of 2 mM, which was sub-packaged and stored at −20° C. The concentration of purchased β-lactamases mother liquor was 1 mg/mL, and the mother liquor was dissolved in 50% glycerol. A part of mother liquor was taken and diluted by 1000 times in reaction solution, sub-packaged and stored at ˜20° C.
The compounds to be tested were dissolved in DMSO to form a mother liquor with concentration of 10 mM. If not used that day, the mother liquor was stored at −20° C. Its test final concentrations were: 100 μM, 25 μM, 6.25 μM, 1.563 μM, 390.6 nM, 97.66 nM, 24.41 nM, 6.10 nM, 1.53 nM, 0.381 nM, 0.095 nM.

Data set [16] in a line: Pharmacokinetics in SD rats (iv). The following applies: male, plasma; for half-life / clearance: SD, rat, iv, 1 mg/kg; for clearance: read-out: Cl—obs (converted); for Vd / AUC(0-t): SD rat, iv 1 mg/kg; for Vd: apparent volume of distribution, read-out: Vss—obs; for AUC(0-t): area under the curve 0→t. It counts as in vivo, SD rat. The protocol: Experimental Example 1: Pharmacokinetics Experiments of the Compound of the Present Invention in Rats Test animals: 3 male SD rats, bodyweight 200-250 g for each animal. Test samples were administrated via intravenous push (iv), dosage of administration was 1 mg/kg, volume of administration was 2 mL/kg. Collecting time points: iv: after administration 0.083 […]. At each time point, about 100 μL of whole blood was sampled via caudal vein, added to K2EDTA anti-coagulative tube, centrifuged in a refrigerated centrifuge under 8000 rpm for 6 min to separate plasma, and the plasma was stored in -80° C. refrigerator. Plasma (20 μL) was taken and placed in a 96-well deep-well plate, and internal standard solution (300 μL) was added, subjected to vortex for 5 min, then centrifuged under 12000 rpm for 5 min, and then supernatant (200 μL) was taken and subjected to vortex for 3 min; to be analyzed by LC-MS/MS. Plasma (30 μL) was taken and placed in 1.5 mL EP tube, and internal standard solution (300 μL) was added, subjected to vortex for 5 min, then centrifuged under 12000 rpm for 5 min, and then supernatant (200 μL) was taken and subjected to vortex for 3 min; to be analyzed by LC-MS/MS. Plasma (30 μL) was taken and placed in a 96-well deep-well plate, and internal standard solution (200 μL) was added, subjected to vortex for 5 min, then centrifuged under 4000 rpm for 20 min, and then supernatant (100 μL) was taken and water (100 μL) was added, and subjected to vortex homogeneously; to be analyzed by LC-MS/MS.

Where [17] appears, read: BAA196, Table 2, BAA-196 Escherichia coli.
[18] abbreviates: BAA1900, Table 2, BAA-1900 Klebsiella pneumoniae.
The mark [19] stands for this setting: BAA2523, Table 2, BAA-2523 Escherichia coli.
The mark [20] stands for this setting: BAA2452, Table 2, BAA-2452 Escherichia coli.
Setting [21] is: BAA2146, Table 2, BAA-2146 Klebsiella pneumoniae.
The mark [22] stands for this setting: Table 3, 7513ecl-314 Enterobacter cloacae.
Where [23] appears, read: Experiment 1, enzyme 0.4 nM, read-out: IC50 Type C AmpC.

Structures are written as SMILES. Structures can show the parent of a compound that is named as a salt. Where two headings read alike, the source gives them in different places. Bounds are passed on as bounds.

As for `NC(=O)[C@@H]1CC[C@@H]2CN1C(=O)N2OS(=O)(=O)O` [AVI sodium salt, Avibactam, reference compound], the MIC in data set [1] (setting [17]) was more than 8 µg/mL; in data set [1] (BAA196, first Table 4, BAA-196 Escherichia coli), 16 µg/mL; in [2] (setting [18]), more than 8 µg/mL; in data set [2] (BAA1900, first Table 4, BAA-1900 Klebsiella pneumoniae), 16 µg/mL; in data set [3] (setting [19]), 8 µg/mL; in [3] (BAA2523, first Table 4, BAA-2523 Escherichia coli), 16 µg/mL. Also, the minimal inhibitory concentration (MIC) was more than 8 µg/mL in data set [4] (setting [20]); 16 µg/mL in [4] (BAA2452, first Table 4, BAA-2452 Escherichia coli); more than 8 µg/mL in data set [5]; more than 8 µg/mL in [6]; more than 8 µg/mL in data set [7]; 8 µg/mL in data set [8]. For the same molecule, the MIC was more than 8 µg/mL in [9]; more than 8 µg/mL in data set [10] (setting [21]); 8 µg/mL in data set [10] (BAA2146, first Table 4, BAA-2146 Klebsiella pneumoniae); more than 8 µg/mL in [11] (setting [22]); 32 µg/mL in data set [11] (first Table 4, 7513ecl-314 Enterobacter cloacae); more than 8 µg/mL in [12]. Besides, the MIC in [13] was 8 µg/mL; in data set [14], more than 8 µg/mL. Besides, the IC50 in [15] (setting [23]) stood at 0.101 µM. The same molecule had a half-life in data set [16] of 24.6 min. In data set [16], the clearance was 14.9 mL/min/kg. The Vd in data set [16] turned out to be 0.535 L/kg. Moreover, in [16], the exposure AUC(0-t) stood at 1140 ng·h/mL.
Take `O=C(NC1CC2(CNC2)C1)[C@@H]1CC[C@@H]2CN1C(=O)N2OS(=O)(=O)O` [Compound 2, (2S,5R)-2-((2-azaspiro[3.3]heptan-6-yl)carbamoyl)-7-oxo-1,6-diazabicyclo[3.2.1]octan-6-yl hydrogen sulfate]: the minimal inhibitory concentration (MIC) came to 1 µg/mL in data set [1] (setting [17]); 1 µg/mL in [2] (setting [18]); 1 µg/mL in data set [3] (setting [19]); 1 µg/mL in [4] (setting [20]); 2 µg/mL in [5]; 2 µg/mL in [6]. In addition, the MIC in data set [7] came to 2 µg/mL; in data set [8], 0.5 µg/mL; in data set [9], 2 µg/mL; in data set [10] (setting [21]), 2 µg/mL; in data set [11] (setting [22]), 2 µg/mL; in data set [12], 2 µg/mL. Also, the MIC in [13] and in data set [14] was 2 µg/mL in each case. Moreover, the IC50 in [15] (read-out: IC50 AmpC, Experiment 2, enzyme 1.6 nM) came to 0.0174 µM; in data set [15] (read-out: IC50 Type C AmpC, Experiment 1, enzyme 0.4 nM), 0.0326 µM. This molecule also gave a half-life in data set [16] of 44.4 min. The clearance in [16] is 6.67 mL/min/kg. Moreover, the Vd in data set [16] is 0.261 L/kg. This molecule also returned an AUC(0-t) in data set [16] of 2500 ng·h/mL.
Regarding `O=C(NC1CCNCC1)[C@@H]1CC[C@@H]2CN1C(=O)N2OS(=O)(=O)O` [MK-7655, reference compound], the MIC in data set [1] (setting [17]), in data set [2] (setting [18]), in data set [3] (setting [19]), in data set [4] (setting [20]), in data set [5] and in [6] was more than 16 µg/mL throughout. Moreover, the minimal inhibitory concentration (MIC) was more than 16 µg/mL in [7]; more than 16 µg/mL in data set [8]; more than 16 µg/mL in data set [9]; more than 16 µg/mL in data set [10] (setting [21]); more than 8 µg/mL in [11] (setting [22]); more than 8 µg/mL in [12]. Also, the MIC in [13] and in data set [14] was more than 8 µg/mL throughout. Moreover, the IC50 in data set [15] (setting [23]) amounted to 0.0495 µM. This molecule also showed a half-life in data set [16] of 23.4 min. Also, the clearance in data set [16] was 16.7 mL/min/kg. Besides, the Vd in data set [16] was found to be 0.409 L/kg. The molecule also registered an AUC(0-t) in data set [16] of 1020 ng·h/mL.
